Test [1] has as its system Paracoccus sp. strain L-25. Kind of test: Glutamate supplementation, test tube culture, lycopene-producing mutant, carotenoid by HPLC. In kind it is cell-based. On the procedure: (§1) In the examples, carotenoids were quantified by high performance liquid chromatography (HPLC) as follows.
(§2) Two columns of Wakosil-II 5 SIL-100 (φ4.6×250 mm) (Wako Pure Chemical Industries, Ltd., Japan) were connected to each other for use as a column. Elution was performed by flowing an n-hexane-tetrahydrofuran-methanol mixed solution (40:20:1), which was a mobile phase, at a flow rate of 1.0 mL/minute at a constant temperature around room temperature. The measurement was performed as follows. Samples were each dissolved in tetrahydrofuran and then diluted 100-fold with the mobile phase. Each dilution was injected in a volume of 20 μL. The column eluate was detected at a wavelength of 470 nm. As a reference for quantification, astaxanthin (SIGMA, Cat. No. A9335) was used. The astaxanthin concentration of the reference solution was determined using the following equation after measuring the absorbance (A) of the reference solution at 477 nm and the area percentage % (B) of the astaxanthin peak at the time of HPLC analysis under the above conditions. Astaxanthin concentration (mg/L)=A/2150×B×100
The strain E-396 (FERM BP-4283) was mutated with N-methyl-N′-nitro-N-nitrosoguanidine to select mutant strain colonies with red-purple color. Carotenoid compounds in their culture solutions were further analyzed by high performance liquid chromatography to select a strain L-25 specifically producing lycopene.
A medium of the following composition (sucrose 30 g/L, corn steep liquor 30 g/L, potassium dihydrogenphosphate 1.5 g/L, disodium hydrogenphosphate 12-hydrate 3.8 g/L, calcium chloride dihydrate 5.0 g/L, magnesium sulfate -hydrate 0.7 g/L, iron sulfate 7-hydrate 0.3 g/L, pH 7.2) was dispensed in 8 ml volumes into cotton-plugged test tubes having an inner diameter of 18 mm and sterilized in an autoclave at 121° C. for 15 minutes to prepare a test tube medium for seed culture.
Next, a medium of the following composition (glucose 30 g/L, filtered corn steep liquor 5 g/L, ammonium sulfate 1.5 g/L, potassium dihydrogenphosphate 1.5 g/L, disodium hydrogenphosphate 12-hydrate 3.8 g/L, calcium chloride dihydrate 5.0 g/L, magnesium sulfate 7-hydrate 0.7 g/L, iron sulfate 7-hydrate 0.6 g/L, ester-based defoaming agent 0.2 g/L) was dispensed in 8 ml volumes into cotton-plugged test tubes having an inner diameter of 18 mm (2 tubes in total). One of the test tubes was supplemented with monosodium L-glutamate monohydrate to 30 mmol/L, while the other was supplemented with nothing as a control. Finally, the mediums in the tubes were adjusted to pH 7.1 with aqueous ammonia and then sterilized in an autoclave at 121° C. for 20 minutes.
The Paracoccus sp. strain L-25 selected above was inoculated, into the test tube medium for seed culture and then cultured with shaking at 28° C. for 2 days at 300 spin. The resulting culture solution was then inoculated in 0.1 ml volumes into the two test tube mediums and cultured with shaking at 28° C. for 3 days at 300 spm. Each culture solution was measured for its carotenoid concentration by HPLC.

Test [2] has as its system Paracoccus sp. strain Y-1071. Kind of test: Glutamate supplementation, test tube culture (Pharmamedia medium), carotenoid by HPLC. In kind it is cell-based. How it is done: as §1
as §2, with “conditions.” for “conditions. Astaxanthin concentration (mg/L)=A/2150×B×100”
Next, a medium of the following composition (sucrose 30 g/L, Pharmamedia 20 g/L, ammonium sulfate 1.5 g/L, potassium dihydrogenphosphate 1.5 g/L, disodium hydrogenphosphate 12-hydrate 3.8 g/L, calcium chloride dihydrate 0.1 g/L, magnesium sulfate 7-hydrate 4.5 g/L, iron sulfate 7-hydrate 5 g/L, biotin 1 mg/L, silicon-based defoaming agent 1 g/L) was dispensed in 8 ml volumes into cotton-plugged test tubes having an inner diameter of 18 mm (2 tubes in total). One of the tubes was supplemented with monosodium L-glutamate monohydrate to 30 mmol/L, while the other was supplemented with nothing as a control.
The resulting culture solution was then inoculated in 0.1 ml volumes into the two test tube media and cultured with shaking at 28° C. for 4 days at 300 spm.
Each culture solution was measured for its carotenoid concentration by HPLC.

Setting [3] is: Glutamic acid concentration 30 mmol/L, 28° C. for 3 days.
[4] abbreviates: Glutamic acid concentration 30 mmol/L, 28° C. for 4 days.

Data on one compound can be found in US8993282B2, “Carotenoid fermentation method” (JX Nippon Oil & Energy Corporation, priority 2008, dated 2015).

Molecules are shown by their SMILES.

On to `N[C@@H](CCC(=O)O)C(=O)O` [Glutamic acid, glutamic acid], for which, in test [1] (30 mmol/L), the “produced carotenoid concentration compared to the sample without glutamic acid” value is reported as “higher produced carotenoid concentration”. In addition, in test [1] (setting [3]), the Adonixanthin is recorded as 0.3 mg/L, the Astaxanthin is given as 0.3 mg/L, the Lycopene came out at 19.6 mg/L and the “Total carotenoid” value was found to be 20.2 mg/L. Further, the “produced carotenoid concentration compared to the sample without glutamic acid” value in test [2] (30 mmol/L) was “higher produced carotenoid concentration”. In test [2] (setting [4]), this compound displayed a 3-Hydroxyechinenone of 0.7 mg/L, an Adonixanthin of 18.4 mg/L, an Astaxanthin of 94.8 mg/L and an Asteroidenone of 1.5 mg/L. In test [2] (setting [4]), the Canthaxanthin was determined as 10.0 mg/L, the Echinenone is 6.5 mg/L, the Phoenicoxanthin amounted to 24.8 mg/L and the “Total carotenoid” value was determined as 170.2 mg/L. In test [2] (setting [4]), this compound had a Zeaxanthin of 0.28 mg/L, a β-Carotene of 13.1 mg/L and a β-Cryptoxanthin of 0.10 mg/L.
